Laboratory results as given in patent US10202387B2, “Heterocyclyl linked imidazopyridazine derivatives as PI3KB inhibitors” (Janssen Pharmaceutica NV, priority 2014, dated 2019).

Experiments:
MTOR_h = target: T1, MTOR_h (Homo sapiens, UniProt P42345); assay: Enzyme binding assay (KINOMEscan); settings: DiscoveRx
T1 construct: purchased DiscoveRx Corporation, San Diego (KINOMEscan service)
Experimental: (§1) Enzyme Binding Assays (KINOMEscan®)
(§2) Kinase enzyme binding affinities of compounds disclosed herein were determined using the KINOMEscan technology performed by DiscoveRx Corporation, San Diego, Calif., USA (www.kinomescan.com). Table A reports the obtained Kd values (nM), with the Kd being the inhibitor binding constant: […]

PIK3Cα_h = target: T2, PIK3Cα_h (Homo sapiens, UniProt P42336); assay: Enzyme binding assay (KINOMEscan); settings: DiscoveRx
T2 construct: purchased DiscoveRx Corporation, San Diego (KINOMEscan service)
Experimental: as §1, §2

PIK3Cβ_h = target: T3, PIK3Cβ_h (Homo sapiens, UniProt P42338); assay: Enzyme binding assay (KINOMEscan); settings: DiscoveRx
T3 construct: purchased DiscoveRx Corporation, San Diego (KINOMEscan service)
Experimental: as §1, §2

PIK3Cγ_h = target: T4, PIK3Cγ_h (Homo sapiens, UniProt P48736); assay: Enzyme binding assay (KINOMEscan); settings: DiscoveRx
T4 construct: purchased DiscoveRx Corporation, San Diego (KINOMEscan service)
Experimental: as §1, §2

PIK3Cδ_h = target: T5, PIK3Cδ_h (Homo sapiens, UniProt O00329); assay: Enzyme binding assay (KINOMEscan); settings: DiscoveRx
T5 construct: purchased DiscoveRx Corporation, San Diego (KINOMEscan service)
T5 sequence (O00329 1-1044): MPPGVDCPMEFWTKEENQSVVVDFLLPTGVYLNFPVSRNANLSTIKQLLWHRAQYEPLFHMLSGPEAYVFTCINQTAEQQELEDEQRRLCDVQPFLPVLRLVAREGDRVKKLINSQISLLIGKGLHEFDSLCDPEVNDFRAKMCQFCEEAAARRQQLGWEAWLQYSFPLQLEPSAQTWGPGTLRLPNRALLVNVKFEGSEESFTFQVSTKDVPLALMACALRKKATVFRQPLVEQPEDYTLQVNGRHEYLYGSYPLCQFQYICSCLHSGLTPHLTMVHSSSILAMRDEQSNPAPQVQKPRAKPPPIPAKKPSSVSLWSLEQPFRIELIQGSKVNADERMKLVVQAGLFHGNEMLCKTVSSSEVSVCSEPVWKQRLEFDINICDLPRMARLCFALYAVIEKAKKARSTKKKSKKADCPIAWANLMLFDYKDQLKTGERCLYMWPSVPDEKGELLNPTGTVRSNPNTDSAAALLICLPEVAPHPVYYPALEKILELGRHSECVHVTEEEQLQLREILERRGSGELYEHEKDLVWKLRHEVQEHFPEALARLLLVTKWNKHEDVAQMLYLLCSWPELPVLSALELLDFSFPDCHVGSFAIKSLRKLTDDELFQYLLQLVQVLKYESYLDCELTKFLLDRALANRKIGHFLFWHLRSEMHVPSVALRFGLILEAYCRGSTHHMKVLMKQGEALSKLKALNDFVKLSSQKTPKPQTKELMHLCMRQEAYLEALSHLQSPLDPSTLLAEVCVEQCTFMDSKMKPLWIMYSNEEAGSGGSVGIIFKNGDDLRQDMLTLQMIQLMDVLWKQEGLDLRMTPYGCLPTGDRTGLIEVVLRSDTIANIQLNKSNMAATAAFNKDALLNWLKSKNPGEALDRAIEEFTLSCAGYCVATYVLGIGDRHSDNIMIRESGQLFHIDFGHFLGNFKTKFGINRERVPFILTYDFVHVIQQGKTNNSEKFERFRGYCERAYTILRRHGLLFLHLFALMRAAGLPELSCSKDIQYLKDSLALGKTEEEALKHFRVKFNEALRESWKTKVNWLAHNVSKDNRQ
Experimental: as §1, §2

[1] = system: Akt phosphorylated at Ser473 in PC-3 cells; assay: Cellular assay: phosphorylation of Akt (Ser473) in PC-3 cells, MSD ELISA; format: cell-based; settings: Homo sapiens, 1 h, 60 min incubation with compound, read-out: IC50 pAkt_S473
Experimental: (§3) Cellular activity of PI3Kβ inhibitors was determined by quantifying the phosphorylation of Akt in PC-3 cells. Akt phosphorylated at Ser473 and Thr308 were measured using an enzyme-linked immunosorbent assay (ELISA; Meso Scale Discovery (MSD). Gaithersburg, Md.) and specific primary antibodies from MSD.
(§4) On day 1, PC3 cells (ATCC […]) were seeded into PerkinElmer MW96 plates at 25.000 cells per well, in 75 μl complete culture medium (DMEM (Dulbecco's Modified Eagle's Medium) high glucose. AQmedia™, D0819, Sigma-Aldrich) containing 10% heat inactivated FCS (Fetal Bovine Serum) and incubated at 37° C., 5% CO2 during 24 hours. On day 2, compound or DMSO (dimethyl sulfoxide) (0.3%) was added and cells were further incubated for 60 min at 37° C., 5% CO2 in a total volume of 100 μl of medium.
(§5) The phosphoprotein assay was executed according to vendor instructions in the Phospho-Akt (Ser473) Assay Whole Cell Lysate Kit (MSD #K15100D-3) and the Phospho-Akt (Thr308) Assay Whole Cell Lysate Kit (MSD #K151DYD-3) using the lysis, blocking and wash buffer provided.
(§6) Briefly, at the end of the cell treatment period, media were removed by aspiration and adherent cells were lysed in 50 μl ice-cold lysis buffer. MSD plates are supplied pre-coated with capture antibodies for Phospho-Akt (Ser473 and Thr308). After blocking, lysates from tissue culture plates were added and plates were washed. Then, a solution containing the detection antibody (anti-total Akt conjugated with an electrochemiluminescent compound-MSD Sulfo-tag label) was added. The signals were detected using an MSD SECTOR Imager 6000 and are proportional to the phospho-Akt titres.
(§7) Data were processed. The percentage of inhibition was plotted against the log concentration of test compounds, and the sigmoidal log concentration-effect curve of best fit was calculated by nonlinear regression analysis. From these concentration-response curves, the IC50 values were calculated. Five concentrations were used for curve fitting.

[2] = system: Akt phosphorylated at Thr308 in PC-3 cells; assay: Cellular assay: phosphorylation of Akt (Thr308) in PC-3 cells, MSD ELISA; format: cell-based; settings: Homo sapiens, 1 h, 60 min incubation with compound, read-out: IC50 pAkt_Thr308
Experimental: as §3, §4, §5, §6, §7

T2 sequence (P42336 whole entry): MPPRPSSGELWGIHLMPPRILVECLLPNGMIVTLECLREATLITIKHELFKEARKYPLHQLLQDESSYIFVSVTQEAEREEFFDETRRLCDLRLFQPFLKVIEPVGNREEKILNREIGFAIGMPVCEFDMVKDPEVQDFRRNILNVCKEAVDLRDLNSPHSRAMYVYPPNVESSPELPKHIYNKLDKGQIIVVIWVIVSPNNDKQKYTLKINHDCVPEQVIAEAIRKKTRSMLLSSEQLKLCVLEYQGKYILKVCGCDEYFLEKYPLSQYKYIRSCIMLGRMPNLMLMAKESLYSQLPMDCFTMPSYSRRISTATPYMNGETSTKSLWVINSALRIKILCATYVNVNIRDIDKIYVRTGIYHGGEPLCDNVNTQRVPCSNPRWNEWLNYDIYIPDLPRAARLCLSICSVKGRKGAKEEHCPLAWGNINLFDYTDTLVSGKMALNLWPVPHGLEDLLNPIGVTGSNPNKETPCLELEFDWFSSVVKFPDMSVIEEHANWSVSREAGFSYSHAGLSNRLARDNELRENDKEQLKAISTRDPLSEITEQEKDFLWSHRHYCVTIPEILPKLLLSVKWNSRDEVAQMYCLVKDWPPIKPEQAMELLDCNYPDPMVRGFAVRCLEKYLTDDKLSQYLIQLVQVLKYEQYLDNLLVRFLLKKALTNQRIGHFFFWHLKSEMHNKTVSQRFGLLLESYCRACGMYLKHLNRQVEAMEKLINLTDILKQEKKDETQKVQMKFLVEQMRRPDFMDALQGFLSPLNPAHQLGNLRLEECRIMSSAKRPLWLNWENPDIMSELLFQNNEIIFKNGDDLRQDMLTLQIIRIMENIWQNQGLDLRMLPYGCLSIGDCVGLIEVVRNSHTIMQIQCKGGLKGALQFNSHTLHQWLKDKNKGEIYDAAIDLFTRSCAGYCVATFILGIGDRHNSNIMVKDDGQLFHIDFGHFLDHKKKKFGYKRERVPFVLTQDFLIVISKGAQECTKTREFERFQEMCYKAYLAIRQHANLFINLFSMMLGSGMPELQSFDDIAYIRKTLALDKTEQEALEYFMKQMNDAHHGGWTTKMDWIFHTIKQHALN
T3 sequence (P42338 whole entry): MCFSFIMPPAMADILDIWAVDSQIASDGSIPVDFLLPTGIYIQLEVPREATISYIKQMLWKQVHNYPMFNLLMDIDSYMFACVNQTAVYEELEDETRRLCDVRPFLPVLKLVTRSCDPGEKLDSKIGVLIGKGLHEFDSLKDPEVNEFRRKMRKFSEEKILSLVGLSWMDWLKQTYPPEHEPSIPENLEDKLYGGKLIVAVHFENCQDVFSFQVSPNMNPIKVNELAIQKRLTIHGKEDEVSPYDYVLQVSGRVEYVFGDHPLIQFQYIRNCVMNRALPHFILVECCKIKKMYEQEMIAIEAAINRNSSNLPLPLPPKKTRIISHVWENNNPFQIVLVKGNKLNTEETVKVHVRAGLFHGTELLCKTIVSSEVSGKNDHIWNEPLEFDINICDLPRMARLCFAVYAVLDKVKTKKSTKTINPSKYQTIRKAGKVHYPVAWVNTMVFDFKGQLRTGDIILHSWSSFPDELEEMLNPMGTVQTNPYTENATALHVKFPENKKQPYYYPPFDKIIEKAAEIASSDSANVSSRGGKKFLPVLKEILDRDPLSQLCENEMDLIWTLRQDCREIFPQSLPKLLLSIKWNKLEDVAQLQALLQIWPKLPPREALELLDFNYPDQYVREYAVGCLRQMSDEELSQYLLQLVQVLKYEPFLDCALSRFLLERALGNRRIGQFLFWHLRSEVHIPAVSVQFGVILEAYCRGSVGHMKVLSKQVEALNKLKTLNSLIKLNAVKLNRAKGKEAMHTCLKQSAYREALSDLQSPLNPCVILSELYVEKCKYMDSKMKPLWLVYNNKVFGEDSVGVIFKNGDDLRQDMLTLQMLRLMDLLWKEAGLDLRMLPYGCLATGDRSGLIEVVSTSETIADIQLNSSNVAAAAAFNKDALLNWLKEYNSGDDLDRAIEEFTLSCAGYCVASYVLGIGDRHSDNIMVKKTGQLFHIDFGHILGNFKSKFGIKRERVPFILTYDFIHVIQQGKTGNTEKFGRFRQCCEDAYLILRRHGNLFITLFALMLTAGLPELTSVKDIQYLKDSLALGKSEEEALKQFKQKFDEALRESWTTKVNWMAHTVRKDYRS
T4 sequence (P48736 whole entry): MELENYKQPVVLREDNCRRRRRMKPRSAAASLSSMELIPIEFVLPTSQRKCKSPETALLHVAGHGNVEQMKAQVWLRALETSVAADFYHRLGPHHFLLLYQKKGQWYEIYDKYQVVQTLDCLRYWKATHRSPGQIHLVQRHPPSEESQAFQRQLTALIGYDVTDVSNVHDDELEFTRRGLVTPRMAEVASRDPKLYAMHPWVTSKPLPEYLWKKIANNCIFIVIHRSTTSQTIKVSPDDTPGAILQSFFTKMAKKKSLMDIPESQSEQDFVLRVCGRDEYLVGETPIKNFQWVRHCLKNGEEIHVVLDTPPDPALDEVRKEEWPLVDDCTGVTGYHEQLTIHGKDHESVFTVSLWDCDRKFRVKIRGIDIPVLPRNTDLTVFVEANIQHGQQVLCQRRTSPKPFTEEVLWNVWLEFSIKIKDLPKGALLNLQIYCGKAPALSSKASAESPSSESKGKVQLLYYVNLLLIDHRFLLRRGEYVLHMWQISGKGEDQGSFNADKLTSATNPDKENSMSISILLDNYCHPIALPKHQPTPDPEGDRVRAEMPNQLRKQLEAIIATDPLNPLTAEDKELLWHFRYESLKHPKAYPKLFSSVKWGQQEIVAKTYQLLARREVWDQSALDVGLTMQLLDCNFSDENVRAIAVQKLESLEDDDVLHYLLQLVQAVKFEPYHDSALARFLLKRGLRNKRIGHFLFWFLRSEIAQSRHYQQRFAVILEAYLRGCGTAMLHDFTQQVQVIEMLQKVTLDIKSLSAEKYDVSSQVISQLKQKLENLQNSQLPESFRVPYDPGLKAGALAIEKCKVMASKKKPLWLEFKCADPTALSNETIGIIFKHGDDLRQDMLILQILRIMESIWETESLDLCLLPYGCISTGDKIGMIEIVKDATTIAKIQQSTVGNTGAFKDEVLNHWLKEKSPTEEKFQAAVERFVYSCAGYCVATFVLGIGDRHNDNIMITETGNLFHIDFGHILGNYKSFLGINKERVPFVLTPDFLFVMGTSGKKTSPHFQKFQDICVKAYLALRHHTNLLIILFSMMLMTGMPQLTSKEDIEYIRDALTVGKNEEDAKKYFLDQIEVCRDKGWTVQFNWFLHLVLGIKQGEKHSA

| SMILES | Kd (MTOR_h) | Kd (PIK3Cα_h) | Kd (PIK3Cβ_h) | Kd (PIK3Cγ_h) | Kd (PIK3Cδ_h) | IC50 [1] | IC50 [2] | melting point |
| --- | --- | --- | --- | --- | --- | --- | --- | --- |
| Cc1c(Cc2c(CN3CC4(C3)CS(=O)(=O)C4)nc3c(-c4ncc[nH]4)cc(N4CCOCC4)nn23)cccc1C(F)(F)F [Compound 20] | 9.33 µM | 0.275 µM | 0.0013 µM | 1.55 µM | 0.032 µM | ~0.034 µM | ~0.02 µM | 150 °C |
| Cc1c(Cc2c(CN3CCS(=O)(=O)CC3)nc3c(N)cc(N4CCOCC4)nn23)cccc1C(F)(F)F [Compound 11] | 11.7 µM | 1.86 µM | 0.0007 µM | > 30.2 µM | 0.081 µM | 0.01 µM | 0.007 µM | 214 °C |
| Cc1c(Cc2c(CNC(=O)[C@H]3CCCN3)nc3c(N)cc(N4CCOCC4)nn23)cccc1C(F)(F)F (stereo in doubt) [Compound 37] | 5.13 µM | 5.49 µM | 0.0008 µM | 4.9 µM | 0.068 µM | 0.158 µM | 0.141 µM | 212 °C |
| Cc1c(Cc2c(CNC(=O)[C@@H]3C[C@@H](O)CN3)nc3c(N)cc(N4CCOCC4)nn23)cccc1C(F)(F)F [Compound 36] | 3.14 µM | 1.39 µM | 0.0001 µM | 3 µM | 0.005 µM | ~0.073 µM | ~0.05 µM | 140 °C |
| Cc1c(Cc2c(CN3CC(C)NC(C)C3)nc3c(-c4ccn[nH]4)cc(N4CCOCC4)nn23)cccc1C(F)(F)F (centres unmarked) [Compound 25] | 0.407 µM | 1.15 µM | 0.002 µM | 5.25 µM | 0.098 µM | 0.214 µM | 0.234 µM | 159 °C |
| Cc1c(Cc2c(CN3CCC4(CCS4(=O)=O)C3)nc3c(N)cc(N4CCOCC4)nn23)cccc1C(F)(F)F (centres unmarked) [Compound 32] | > 30.2 µM | 15.1 µM | 0.0025 µM | > 30.2 µM | 0.251 µM | 0.091 µM | 0.074 µM | 214 °C |
| Cc1c(Cc2c(CN3CCC(S(C)(=O)=O)C3)nc3c(N)cc(N4CCOCC4)nn23)cccc1C(F)(F)F (centres unmarked) [Compound 6] | 21.9 µM | 7.08 µM | 0.0024 µM | > 30.2 µM | 0.263 µM | 0.04 µM | ~0.013 µM | 159 °C |
| Cc1c(Cc2c(CN3CC4(C3)CS(=O)(=O)C4)nc3c(-c4cnc[nH]4)cc(N4CCOCC4)nn23)cccc1C(F)(F)F [Compound 1] | 3.16 µM | 0.162 µM | 0.0012 µM | 0.933 µM | 0.012 µM | 0.009 µM | ~0.004 µM | 217 °C |
| Cc1c(F)cccc1Cc1c(CN2CCS(=O)(=O)CC2)nc2c(N)cc(N3CCOCC3)nn12 [Compound 43] | 1.38 µM | 2.04 µM | 0.0004 µM | > 30.2 µM | 0.062 µM | 0.01 µM | 0.017 µM | 130 °C |
| Cc1c(Cc2c(CC(=O)N3CCS(=O)(=O)CC3)nc3c(N)cc(N4CCOCC4)nn23)cccc1C(F)(F)F [Compound 23] | > 30.2 µM | 2.24 µM | 0.0015 µM | > 30.2 µM | 0.24 µM | ~0.079 µM | ~0.068 µM | 226 °C |
| CCc1c(F)cccc1Cc1c(CN2CCS(=O)(=O)CC2)nc2c(N)cc(N3CCOCC3)nn12 [Compound 45] | 2 µM | 2.4 µM | 0.0011 µM | > 30.2 µM | 0.178 µM | > 0.513 µM | > 0.513 µM | 240 °C |
| Cc1c(Cc2c(CN3CC(O)C3)nc3c(-c4ncc[nH]4)cc(N4CCOCC4)nn23)cccc1C(F)(F)F [Compound 19] | 4.37 µM | 0.513 µM | 0.0016 µM | 0.891 µM | 0.052 µM | 0.05 µM | 0.054 µM | 198 °C |
| Cc1c(Cc2c(CN3CC4(CCS4(=O)=O)C3)nc3c(N)cc(N4CCOCC4)nn23)cccc1C(F)(F)F [Compound 2] | 21.4 µM | 5.49 µM | 0.0021 µM | > 30.2 µM | 0.023 µM | 0.006 µM | ~0.004 µM | 180 °C |
| Cc1c(Cc2c(CC(=O)N3CC(CO)C3)nc3c(N)cc(N4CCOCC4)nn23)cccc1C(F)(F)F [Compound 24] | 3.98 µM | 3.16 µM | 0.0005 µM | 17 µM | 0.052 µM | 0.049 µM | 0.015 µM | 130 °C |
| Cc1c(Cc2c(CN3CCCC(CO)C3)nc3c(-c4ncc[nH]4)cc(N4CCOCC4)nn23)cccc1C(F)(F)F (centres unmarked) [Compound 17] | > 30.2 µM | 0.813 µM | < 0.0015 µM | 6.76 µM | 0.079 µM | 0.065 µM | 0.058 µM | 171 °C |
| CCc1c(F)cccc1Cc1c(CN2CC(O)C2)nc2c(N)cc(N3CCOCC3)nn12 [Compound 44] | 1.05 µM | 1.7 µM | 0.0054 µM | 0.537 µM | 0.275 µM | 0.316 µM | 0.145 µM | 172 °C |
| Cc1c(F)cccc1Cc1c(CN2CC(O)C2)nc2c(N)cc(N3CCOCC3)nn12 [Compound 42] | 1.23 µM | 4.47 µM | 0.0011 µM | 2.69 µM | 0.123 µM | 0.117 µM | 0.055 µM | 214 °C |
| Cc1c(Cc2c(CN3CC(S(C)(=O)=O)C3)nc3c(N)cc(N4CCOCC4)nn23)cccc1C(F)(F)F [Compound 8] | 15.5 µM | 11.5 µM | 0.0016 µM | 30.9 µM | 0.195 µM | 0.025 µM | ~0.02 µM | 210 °C |
| Cc1c(Cc2c(CN3CCC4(CCCCS4(=O)=O)C3)nc3c(N)cc(N4CCOCC4)nn23)cccc1C(F)(F)F (centres unmarked) [Compound 33] | > 30.2 µM | 13.5 µM | 0.003 µM | > 30.2 µM | 0.398 µM | 0.12 µM | 0.1 µM | 228 °C |
